The record followed here is patent US9464106B2, “Oligonucleotides useful for detecting and analyzing nucleic acids of interest” (Exiqon A/S, priority 2002, dated 2016).

l = locked nucleic acid (LNA); d = 2'-deoxy (DNA)

This data set relates to yeast HSP78 (YDR258C) sequence. Description: Duplex melting temperatures of HSP78 25-mer capture probes (UV spectrophotometer). Particulars: 25-mer capture probe duplex with complementary target; design PM = perfectly matched, MM = single mismatch; DNA, LNA_T (T) or LNA_TC (TC) substituted.
As for “12756 (DNA GAAACATCGGGGTGCGCTTTTTCAA; DNA, backbone not given here; further chemistry not fully specified) [compound 12756]”, the “Average duplex melting temp.” value was found to be 68.7 °C.
Under “12757 (DNA GACAGCCTCAGTTAATTGGCCACCA; DNA, backbone not given here; further chemistry not fully specified) [compound 12757]” stands 70.2 °C.
For “12758 (DNA CCGATTAAACGAGAGACAGTATGCT; DNA, backbone not given here; further chemistry not fully specified) [compound 12758]”, the “Average duplex melting temp.” value worked out at 65.4 °C.
As to “12759 (DNA ATCAAATAGGAATTCAGCTAAAGCC; DNA, backbone not given here; further chemistry not fully specified) [compound 12759]”, the “Average duplex melting temp.” value was found to be 61.5 °C.
Turning to “12760 (DNA GACCTAAGAACATAAAGCTGGCAAT; DNA, backbone not given here; further chemistry not fully specified) [compound 12760]”, the “Average duplex melting temp.” value amounted to 63.5 °C.
Next, “12761 (DNA AAATAGCAGCAATGGCCTCGTCTTG; DNA, backbone not given here; further chemistry not fully specified) [compound 12761]”: 69.2 °C.
Next, “12762 (DNA ATAGCAGCAATGGCCTCGTCTTGGC; DNA, backbone not given here; further chemistry not fully specified) [compound 12762]”: 72.7 °C; “12763 (DNA GCAATGGCCTCGTCTTGGCCAACGA; DNA, backbone not given here; further chemistry not fully specified) [compound 12763]”: 72.8 °C.
Under “12764 (DNA GATGAACTCAGGTGGATAGGATCTT; DNA, backbone not given here; further chemistry not fully specified) [compound 12764]” stands 64 °C; under “12765 (DNA TCAGTTAGCCAATCCTTCGCTTCAT; DNA, backbone not given here; further chemistry not fully specified) [compound 12765]”, 66.1 °C.
As to “12766 (DNA GTTGCCATGGAGTTCAAAATCTGTC; DNA, backbone not given here) [compound 12766]”, the “Average duplex melting temp.” value stood at 65.8 °C.
Next, “12767 (DNA AGACGTACAGCATCAGAAATAGCAG; DNA, backbone not given here; further chemistry not fully specified) [compound 12767]”: 66.6 °C.
Regarding “12768 (DNA TTTGGTAGCACGACAAGCTTAGTAT; DNA, backbone not given here) [compound 12768]”, the “Average duplex melting temp.” value came to 65.7 °C.
Next, “12769 (DNA ATAAAGCTGGCAATAGGTCTCTTTT; DNA, backbone not given here; further chemistry not fully specified) [compound 12769]”: 63.6 °C.
Under “12770 (DNA TTTTTCGGCCAAACGATCTTGAATT; DNA, backbone not given here; further chemistry not fully specified) [compound 12770]” stands 65 °C; under “12771 (DNA CACTCTAACAGTTTCGCCGTTTCTA; DNA, backbone not given here) [compound 12771]”, 66.3 °C; under “12772 (DNA TCAATGGCCTTGCACCATATAATTG; DNA, backbone not given here) [compound 12772]”, 64 °C.
Next, “12773 (DNA AAAACGACAGCATAAGGCTTTCTTC; DNA, backbone not given here; further chemistry not fully specified) [compound 12773]”: 64.5 °C; “12774 (DNA ATTGACCTCAAAACTTTCTTGGATA; DNA, backbone not given here; further chemistry not fully specified) [compound 12774]”: 61.8 °C.
For the substance “12775 (DNA CCCAACTTTGTGTCGTTTAATAAAA; DNA, backbone not given here; further chemistry not fully specified) [compound 12775]”, the “Average duplex melting temp.” value was 61 °C.
“12776 (DNA ACCATCATCACCCAACTTTGTGTCG; DNA at ACG, LNA at T, backbone not given here; further chemistry not fully specified) [compound 12776]”: the “Average duplex melting temp.” value worked out at 79.2 °C.
As for “12777 (DNA CAATGATCGTGTTACGGAAATCAAC; sugars from the 5' end dddlddlddlddldddddddldddd, backbone not given here; further chemistry not fully specified) [compound 12777]”, the “Average duplex melting temp.” value is 72.2 °C.
Next, “12778 (DNA TGGCCTAGGGAATCGGTCAGCTTAC; DNA at ACG, LNA at T, backbone not given here; further chemistry not fully specified) [compound 12778]”: 76.9 °C.
Next, “12779 (DNA TTGGAAACATCGGGGTGCGCTTTTT; sugars from the 5' end lldddddddldddddlddddlllld, backbone not given here; further chemistry not fully specified) [compound 12779]”: 76.7 °C.
As for “12780 (DNA GAAACATCGGGGTGCGCTTTTTCAA; DNA at ACG, LNA at T, backbone not given here; further chemistry not fully specified) [compound 12780]”, the “Average duplex melting temp.” value turned out to be 78 °C.
Regarding “12781 (DNA GACAGCCTCAGTTAATTGGCCACCA; sugars from the 5' end dddddddlddddlddlldddddddd, backbone not given here; further chemistry not fully specified) [compound 12781]”, the “Average duplex melting temp.” value was determined as 75.4 °C.
Under “12782 (DNA CCGATTAAACGAGAGACAGTATGCT; sugars from the 5' end ddddlldddddddddddddldlddd, backbone not given here; further chemistry not fully specified) [compound 12782]” stands 72.2 °C; under “12783 (DNA ATCAAATAGGAATTCAGCTAAAGCC; DNA at ACG, LNA at T, backbone not given here; further chemistry not fully specified) [compound 12783]”, 66.3 °C.
Under “12784 (DNA GACCTAAGAACATAAAGCTGGCAAT; sugars from the 5' end ddddldddddddldddddldddddd, backbone not given here; further chemistry not fully specified) [compound 12784]” stands 67.5 °C.
Under “12785 (DNA AAATAGCAGCAATGGCCTCGTCTTG; DNA at ACG, LNA at T, backbone not given here; further chemistry not fully specified) [compound 12785]” stands 77.2 °C.
